Source: patent US20090053290A1, “TRANSDERMAL DRUG DELIVERY COMPOSITIONS AND TOPICAL COMPOSITIONS FOR APPLICATION ON THE SKIN” (priority 2006, published 2009)

Assays:
[1] = in vivo; cited from earlier work
[2] = system: onychomycosis; settings: nail lacquer, topical; cited from earlier work
[3] = system: bovine pericardium; experiment: Melting temperature measurement of fixed tissue (cross-linking), pericardium; settings: 48 hours; PA 0.5% in PBS, GA 0.625% in PBS; n = 3; in °C
Method: (§1) The fixed tissues and fresh tissues were assayed for their melting temperature by heating tissue strips (1×2 cm^2, n=3). The melting temperature was recorded when tissues started to shrink.

[4] = system: collagenase; assay type: biochemical
Method: Tissue integrity was checked at the end of the incubation using a standard histological method (hematoxylin-eosin (H&E)). […] At predetermined intervals, 1.0 mL of solution was taken out and filtered through a 0.45-μM cellulose filter to separate solubilized collagen from insolubilized matrix. The amount of solubilized collagen was determined after total acid hydrolysis in 6N HCl for 24 hours at 100° C. by measuring hydroxyproline. The results are expressed as a percentage of the total collagen solubilized.

[5] = system: bovine tendon; experiment: Melting temperature measurement of fixed tissue (cross-linking), tendon; settings: 48 hours; PA 0.5% in PBS, GA 0.625% in PBS; n = 3; in °C
Method: as §1

[6] = system: Fischer 344 rats
Excerpt: Three-week-old Fischer 344 rats were obtained from Harlan Sprague Dawley, Inc. (Indianapolis, Ind.). NIH and University of Southern California IACUC guidelines for the care and use of laboratory animals were observed. […] The samples were retrieved after 3 and 6 weeks post-operation, and samples were processed for H&E and von Kossa staining, the latter to determine the extent of calcification.

[7] = system: human skin fibroblasts; experiment: Cell proliferation and collagen synthesis of fibroblasts cultured on treated pericardium; assay type: cell-based; settings: p<0.005 for treated pericardium, FIG. 9
Method: Discs, 15 mm in diameter, were punched out from PA-treated bovine pericardium and inserted into the bottom of 24-well plates. After washing and equilibrating with PBS, human skin fibroblasts (8×10^4/well, third passage kindly provided by Dr. Warren Garner, University of Southern California) were placed on top of the tissues. After 48 hours of culture in 10% FBS/DMEM, the medium was changed to a labeling medium ([^3H]thymidine, 10 μCi/mL, 0.5% FBS/DMEM) followed by a 24 hour labeling period. Cell proliferation was assayed and collagen synthesis recorded as [^3H]OH-proline incorporation in a culture medium containing 25 μg/mL ascorbic acid, 25 μg/mL β-APN and 25 μCi/mL [^3H]proline in 0.5% FBS/DMEM after labeling for 48 hours.

[8] = system: NIH 3T3 cells; settings: mouse, 72 h
Method: NIH 3T3 cells were used in these studies. Cells were cultured in 24-well plates at a density of 5×10^6 cells/well in 10% FBS/DMEM overnight. […] Cells were incubated for 72 hours before cell counting and morphological studies.

[9] = in vivo; cited from earlier work; remark: listed apart in the source

For CC(=O)Oc1ccccc1C(=O)O [Aspirin, aspirin], the “period of inhibition of blood clotting” value [1] is given as 4 to 7 days.
In the case of Cc1cc(C2CCCCC2)n(O)c(=O)c1 [Ciclopirox], the cure rate [2] is given as < 10%.
For O=CCCCC=O [GA, glutaraldehyde], the “Melting temperature, pericardium” value [3] was 94 ± 1.5, the “collagen fibril structure after 24 hours of collagenase digestion (H&E)” value [4] was “remained intact” and the “Melting temperature, tendon” value [5] was 84 ± 1.0. The “degradation of fixed tissue after subcutaneous implantation (summary)” value ([6]; periods ranging from 3 and 6 weeks) was “no apparent degradation”, the “calcification of implant (Von Kossa staining)” value ([6]; rat, in vivo, sc) was “dystrophic calcification” and the “implant degradation, six weeks postoperatively” value ([6]; subcutaneous) was “still intact”. For the same compound, the “implant integrity, three weeks postoperatively” value ([6]; subcutaneous) was “retained their integrity”, the “tissue reaction to implant, one week postoperatively” value ([6]; subcutaneous, treated pericardium, H&E) was “lesser inflammatory reaction” and the “collagen synthesis / deposition (hydroxyproline incorporation)” value [7] was “inhibit collagen synthesis”. The “concentration above which cells could not survive” value [8] was “greater than 0.6 μg/mL” and the “concentration at which cytotoxicity was observed” value [8] was ≤ 600 ng/mL.
For CC1=C(/C=C/C(C)=C/C=C/C(C)=C/C(=O)O)C(C)(C)CCC1 [tretinoin, All-trans-retinoic acid], the absorption [9] is given as “less than 2%”.
